The values below come from patent US20090318402A1, “RUTHENIUM (II) COMPOUNDS” (The University Court of the University of Edinburg, priority 2006, published 2009).

The IC50 is the point on the concentration scale where inhibition reaches its midpoint. A high value points to lower potency.

Series [1] relates to A549 cancer cell line. Kind of series: Cell viability after increasing thiol levels (NAC pre-incubation). It counts as cell-based. The conditions noted are these: 24 hours incubation, 96 hour recovery, 5 mM NAC for two hours, FIG. 5. How it is done:
Cell viability was determined in the A549 cancer cell line after cells were pre-incubated with 5 mM NAC to increase intracellular thiol levels. […] This implies that ROS are involved in cell death.

Series [2] concerns A2780 cancer cell line. Kind of series: Cytotoxicity: inhibitory growth activity, sulforhodamine B assay. The class given is cell-based. The conditions noted are these: 24 hours drug exposure, 96 hours recovery, SRB. The procedure:
(§1) Compounds were tested for inhibitory growth activity against the A2780 and A549 cancer cell lines. Each drug was tested for activity at six different concentrations (100 μM, 50 μM, 10 μM, 5 μM, 1 μM and 0.1 μM) and each concentration was tested in triplicate, relative to a cisplatin control.
The A2780 cancer cell line was maintained by growing the cells in RPMI media supplemented with 5% fetal bovine serum, 1% penicillin/streptomycin and 2 mM L-glutamine. The cells were split when approximately 70-80% confluence were reached using 0.25% trypsin/EDTA. The cells were kept incubated at 37° C., 5% CO2, high humidity. The A549 cancer cell line was maintained by growing the cells in DMEM media supplemented with 10% fetal bovine serum, 1% penicillin/streptomycin and 2 mM L-glutamine. The cells were split when approximately 70-80% confluence were reached using 0.25% trypsin/EDTA. The cells were kept incubated at 37° C., 5% CO2, high humidity.
A2780 cancer cells were plated out at 50000 cells/well (±10%) on day one. A549 cancer cells were plated out at 20000 cells/well (±10%) on day two. On day three the test compound was dissolved in DMSO to give a stock solution of 20 mM and serial dilutions were carried out in DMSO to give concentrations of drug in DMSO of 10 mM, 2 mM, 1 mM, 0.2 mM and 0.02 mM. These were added to the wells to give the six testing concentrations and a final concentration of DMSO as 0.5% (v/v) with a total volume of drugs and media to be 200 μl. The cells were exposed to the drug for 24 hours then, after drug removal, fresh media was given and the cells were incubated for 96 hours recovery time. The remaining biomass was estimated by the sulforhodamine B assay. The cells were then fixed using 50 μl 50% (w/v) TCA and incubated at 4° C. for one hour. The biomass was stained with 100 μl 0.4% (w/v) sulforhodamine B in 1% acetic acid. The dye was solubilised with Tris Buffer and the absorbance was read using a BMG Fluostar microplate reader at 595 nm. A baseline correction at 690 nm was subtracted from the values. The absorbance for 100% cell survival was based on the average absorbance for the 0.1 μM dosed triplicate for that drug. IC50 values were calculated using XL-Fit version 4.0.

Series [3] relates to A549 cancer cell line. The series is described as above. It counts as cell-based. The conditions noted are these: 24 hours drug exposure, 96 hours recovery, SRB. The procedure:
as §1
The A2780 cancer cell line was maintained by growing the cells in RPMI media supplemented with 5% fetal bovine serum, 1% penicillin/streptomycin and 2 mM L-glutamine. […] The cells were kept incubated at 37° C., 5% CO2, high humidity. The A549 cancer cell line was maintained by growing the cells in DMEM media supplemented with 10% fetal bovine serum, 1% penicillin/streptomycin and 2 mM L-glutamine. […] The cells were kept incubated at 37° C., 5% CO2, high humidity.
A2780 cancer cells were plated out at 50000 cells/well (±10%) on day one. A549 cancer cells were plated out at 20000 cells/well (±10%) on day two. […] The remaining biomass was estimated by the sulforhodamine B assay. The cells were then fixed using 50 μl 50% (w/v) TCA and incubated at 4° C. for one hour. The biomass was stained with 100 μl 0.4% (w/v) sulforhodamine B in 1% acetic acid. The dye was solubilised with Tris Buffer and the absorbance was read using a BMG Fluostar microplate reader at 595 nm. A baseline correction at 690 nm was subtracted from the values. The absorbance for 100% cell survival was based on the average absorbance for the 0.1 μM dosed triplicate for that drug. IC50 values were calculated using XL-Fit version 4.0.

Series [4] can be described thus: Aqueous solution chemistry followed by 1H NMR (hydrolysis, arene loss). It counts as physicochemical. The conditions noted are these: 100 μM. The procedure: NMR-Spectroscopy: All ^1H NMR experiments for characterization of synthesized compounds were recorded on either a Bruker DMX 500 MHz spectrometer equipped with TBI [^1H, ^13C, ^15N] probe-head, equipped with z-field gradients or a Bruker DPX 360 MHz spectrometer. The proton signals were calibrated against the residual solvent peak, δ 7.27 (chloroform), 2.07 (acetone) and 2.52 (DMSO). The 2D ^1H-TOCSY and 2D ^1H COSY experiments for characterization were run on a Bruker DMX 500 MHz spectrometer. 2D-^1H ROESY experiment for characterization was recorded on a Bruker AVA […] spectrometer equipped with a with a TXI [^1H, ^13C, ^15N] probe-head, equipped with z-field gradients. All pH titration experiments were recorded on a Bruker AVA 600 MHz spectrometer where dioxan was added as an internal reference (δ 3.75, in 100% D2O). The water was suppressed using a 1D Double Pulse Field Gradient Spin Echo (DPFGSE) experiment. The aqueous solution behaviour was recorded on a Bruker bio 600 MHz spectrometer equipped with a cryoprobe and the water was suppressed using a 1D Double Pulse Field Gradient Spin Echo (DPFGSE) experiment. The chemical shifts were measured relative to dioxin (internal reference δ 3.75, in 90% H2O/10% D2O). All spectra were recorded using 5 mm quartz tubes at 298 K unless stated otherwise. All NMR data were processed using Xwin-NMR (Version 2.0 Bruker UK Ltd).
The complex was dissolved in H2O/D2O, the pH was taken, and NMR spectra were recorded at uniform time intervals at a fixed temperature using a multi-zg kinetic experiment program. After acquisition, Electrospray Mass Spectrometry was performed on a portion of the NMR solution.
The solution chemistry was followed by ^1H NMR unless stated otherwise.

In series [5] the test system is A549 cancer cells. Kind of series: Detection of reactive oxygen species (ROS) with DCFH-DA probe. It counts as cell-based. The conditions noted are these: 25 μM, 0.5% DMSO, 6.5 hours, 310 K, cells pre-loaded with DCFH-DA; FIG. 4. The procedure: The generation of ROS can be detected inside living cells using the molecular probe DCFH-DA. This probe crosses the membrane into cells where it is hydrolyzed to DCFH. In the presence of ROS it is oxidized to highly fluorescent DCF. […] Cells were loaded with DCFH-DA (10 μM, 0.5% DMSO (v/v)) and were incubated at 310 K, 5% CO2, high humidity for 30 minutes. The probe was removed and the cells were washed twice with PBS (200 μL). The cells were then kept in Hanks Balanced Salt Solution (HBSS) and the ruthenium compounds were diluted with HBSS and added to the wells (25 μM, 0.5% DMSO (v/v)). Hydrogen peroxide (25 μM) was added as a positive control and the fluorescence was read every 200 seconds over a period of 6.5 hours at 310 K by excitation at 480±10 nm and emission at 538±15 nm on a BMG fluostar plate reader. A time course experiment was performed to follow any increase in fluorescence over 6.5 hours after addition of ruthenium compounds to cells pre-loaded with DFCH-DA.

The conditions of series [6]: 50 μM, 95% H2O, 5% MeOH, pH 2.27.
Setting [7] is: 90% H2O/10% D2O, pH=ca 5, 25° C., initially (time=40 mins).

As for `[NH2][Pt]([NH2])([Cl])[Cl]` [CDDP, cisplatin, reference compound], in series [1] (5 μM drug), the “cell survival of cells pre-treated with NAC versus untreated cells” value is given as “greater cell survival”.
Regarding `CN(C)c1ccc(N=Nc2cc[nH]n2)cc1.F[P-](F)(F)(F)(F)F.[Cl-].[Ru+2].c1ccc(-c2ccccc2)cc1` [Compound 15, [Ru(biphenyl)(3(5)-(4-dimethylaminophenylazo)pyrazole)Cl]PF6], the concentration for half-maximal inhibition (IC50) in series [2] stood at 24 µM; in series [3] it was 32 µM. The “arene loss (free biphenyl peaks)” value in series [4] (99.5% D2O, 0.5% DMSO, 115 mM NaCl, pH=7.35, 37° C., over 24 hours) is given as “major peaks corresponding to free biphenyl”.
Consider `CN(C)c1ccc(N=Nc2cc[nH]n2)cc1.F[P-](F)(F)(F)(F)F.[I-].[Ru+2].c1ccc(-c2ccccc2)cc1` [Compound 16, [Ru(biphenyl)(3(5)-(4-dimethylaminophenylazo)pyrazole)I]PF6], for which the IC50 is 31 µM in series [2] and 42 µM in series [3].
On the same counts, the results for “[(η^6-C6H5OCH2CH2OH)Ru(azpy-NMe2)I]I [Compound 22]” are 15 µM and 49 µM.
Compound “[Ru(THN)(3(5)-(4-dimethylaminophenylazo)pyrazole)Cl]PF6 [Compound 18]” showed a 50% inhibitory concentration (IC50) in series [2] of 57 µM. That is a double-digit micromolar value.
Turning to “[Ru(THN)(4-phenol-azo pyridine)Cl]PF6 [Compound 19]”, the half-maximal inhibitory concentration (IC50) in series [2] worked out at 38 µM; in series [3] it was 81 µM.
“[Ru(benzene)(3(5)-(4-dimethylaminophenylazo)pyrazole)Cl]PF6 [Compound 17]”: in series [2], the IC50 was 88 µM.
As to “[Ru(bip)(2-phenyl-azo pyridine)I]PF6 [Compound 7]”, the half-maximal inhibitory concentration (IC50) came out at 51 µM in series [2] and 39 µM in series [3].
Turning to “[Ru(biphenyl)(4-phenol-azo pyridine)Cl]PF6 [Compound 12]”, the IC50 in series [2] was determined as 18 µM; in series [3], 56 µM.
As for “[Ru(biphenyl)(4-phenol-azo pyridine)I]PF6 [Compound 13]”, the half-maximal inhibitory concentration (IC50) was found to be 5 µM in series [2] and 6 µM in series [3]. Besides, in series [5], the “change in DCF fluorescence over time (ROS generation)” value (“change in DCF fluorescence over time” below) is recorded as “increase in the DCF fluorescence”. Besides, in series [1] (5 μM drug), the “cell survival of cells pre-treated with NAC versus untreated cells” value is reported as “greater cell survival”.
“[Ru(biphenyl)(Azpy-NMe2)Cl]PF6 [Compound 9]”: the 50% inhibitory concentration (IC50) in series [2] came to 40 µM; in series [3], 53 µM.
In the case of “[Ru(biphenyl)(Azpy-NMe2)I]PF6 [Compound 10]”, the concentration for half-maximal inhibition (IC50) is 3 µM in series [2] and 2 µM in series [3]. In addition, the “change in DCF fluorescence over time” value in series [5] was “increase in the DCF fluorescence”. The “cell survival of cells pre-treated with NAC versus untreated cells” value in series [1] (1 μM drug) is “greater cell survival”.
In series [2], “[Ru(p-cymene)(3(5)-(4-dimethylaminophenylazo)pyrazole)Cl]PF6 [Compound 14]” registered an IC50 of 18 µM. In addition, the “half live for hydrolysis” value in series [6] is 2.09 h. The compound also displayed a concentration for half-maximal inhibition (IC50) in series [3] of 41 µM. Besides, the “speciation after 24 hours” value in series [4] (90% H2O/10% D2O, pH=ca 5, 25° C., after 24 hours) is listed as “exists fully in the aqua form”. Besides, in series [4] (setting [7]), the aqua species is approximately 40% and the chloride species is listed as approximately 60%. The “course of the hydrolysis reaction” value in series [4] (90% H2O/10% D2O, pH=ca 5, 37° C. over 24 hours, compared with 25° C.) is recorded as “the course of the reaction is the same”.
“[Ru(p-cymene)(4-phenol-azo pyridine)Cl]PF6 [Compound 11]” yielded an IC50 in series [2] of 54 µM.
“[Ru(p-cymene)(4-phenol-azo pyridine)I]PF6 [Compound 21]”: the 50% inhibitory concentration (IC50) in series [2] and in series [3] was 4 µM in each case. The “change in DCF fluorescence over time” value in series [5] was “increase in the DCF fluorescence”. In series [1] (5 μM drug), the “cell survival of cells pre-treated with NAC versus untreated cells” value is recorded as “greater cell survival”.
As to “[Ru(p-cymene)(Azpy-NMe2NO2)I]PF6 [Compound 20]”, the half-inhibitory concentration (IC50) in series [2] came out at 40 µM; in series [3], 28 µM.
